What is called IC50 is the concentration that gives 50% inhibition. A lower IC50 goes with greater potency.

Drawing on patent US20250325689A1, “ANTIBODY-MULTIDRUG CONJUGATE” (UBE CORPORATION, priority 2022, published 2025), this text covers IC50 for one molecule.

Starred links: 1 amine or outer side, 2 acyl side, 3 side chain; linkers in the order of their positions; H or OH if unused. Non-standard residues stand in square brackets, D forms with d. Residues, ends and D or L forms follow the SMILES beside them. *: point of attachment. Dolaproine = CO[C@@H]([C@@H]1CCCN1)[C@@H](C)C(=O)O; X2 = C[C@@H](N[*:1])[C@@H](OC(=O)[*:2])c1ccccc1; Dil = CC[C@H](C)[C@H](NC)[C@@H](CC(=O)O)OC; X4 = OCC1OC(n2cc(CN*)nn2)C(O)C(O)C1O; NMeV = CN[C@H](C(=O)O)C(C)C

The target of this test is T1, porcine tubulin (Sus scrofa, UniProt P02550+P02554).
T1 construct: purchased Cytoskeleton, Inc. BKO11P
The test can be described thus: Tubulin polymerization inhibition test. It counts as biochemical. Conditions: 37° C., fluorescence measured for 60 minutes. The method, then: For measuring the tubulin polymerization inhibitory action, Tubulin Polymerization Assay Kit (manufactured by Cytoskeleton, Inc., BKO11P) was used. A PIPES buffer containing porcine tubulin, GTP, MgCl2, EGTA, Glycerol, and a fluorescent reporter was prepared under ice-cooling as a reaction solution. The reaction solution was ice-cooled until it was used. A test compound solution was prepared by an aqueous solution containing 1.5% DMSO, and added to a 96 well plate (manufactured by Corning Inc., 3686) at 5 μL/well. The reaction solution was added thereto at 50 μL/well, the plate was placed in a microplate reader (FlexStation 3, manufactured by Molecular Device, LLC) in which the internal temperature was set to 37° C. in advance, and the fluorescence intensity measurement (excitation wavelength: 360 nm, detection wavelength: 420 nm) of each well was started. The fluorescence intensity was measured once every minute, and the measurement was continued for 60 minutes.
The tubulin polymerization inhibition rate (%) was calculated by the following equation. […]

T1 sequence (P02550 whole entry): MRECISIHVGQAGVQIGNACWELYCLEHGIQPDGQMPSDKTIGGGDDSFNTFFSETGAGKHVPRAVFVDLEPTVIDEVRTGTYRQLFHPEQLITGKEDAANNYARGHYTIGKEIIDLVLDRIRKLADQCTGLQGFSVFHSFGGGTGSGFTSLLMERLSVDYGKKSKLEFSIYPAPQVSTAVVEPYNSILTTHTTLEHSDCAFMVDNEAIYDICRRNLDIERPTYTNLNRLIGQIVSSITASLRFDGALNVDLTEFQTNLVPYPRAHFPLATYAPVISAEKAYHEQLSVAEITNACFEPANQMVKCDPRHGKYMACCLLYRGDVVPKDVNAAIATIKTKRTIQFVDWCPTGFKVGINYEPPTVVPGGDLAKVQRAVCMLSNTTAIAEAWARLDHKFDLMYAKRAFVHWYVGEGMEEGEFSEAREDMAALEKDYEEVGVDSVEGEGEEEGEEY
T1 sequence (P02554 whole entry): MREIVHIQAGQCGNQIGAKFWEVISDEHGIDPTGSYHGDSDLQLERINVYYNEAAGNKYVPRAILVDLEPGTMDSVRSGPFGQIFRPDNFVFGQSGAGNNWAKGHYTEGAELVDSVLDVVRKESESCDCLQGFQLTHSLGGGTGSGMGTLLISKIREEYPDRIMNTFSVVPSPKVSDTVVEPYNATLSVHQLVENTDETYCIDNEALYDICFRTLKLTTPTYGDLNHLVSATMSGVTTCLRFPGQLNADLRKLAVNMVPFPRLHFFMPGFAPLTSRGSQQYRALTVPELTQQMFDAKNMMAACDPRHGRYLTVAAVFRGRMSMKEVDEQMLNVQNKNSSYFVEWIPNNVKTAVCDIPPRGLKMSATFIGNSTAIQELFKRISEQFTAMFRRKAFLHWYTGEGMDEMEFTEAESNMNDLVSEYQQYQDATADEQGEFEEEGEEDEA

`CC[C@H](C)[C@@H]([C@@H](CC(=O)N1CCC[C@H]1[C@H](OC)[C@@H](C)C(=O)N[C@H](C)[C@@H](OC(=O)NCc1cn(C2OC(CO)C(O)C(O)C2O)nn1)c1ccccc1)OC)N(C)C(=O)[C@@H](NC(=O)[C@@H](NC)C(C)C)C(C)C` (stereo partly shown) [Example U-018] (H-[NMeV]V[Dil][Dolaproine][X2]-X4) had a half-maximal inhibitory concentration (IC50) of no more than 3 µM.
